Assay: Retention/recovery of [19F]DCFPyL on the HLB solvent exchange cartridge as a function of pH (load, wash, product samples)
Format: physicochemical
Method: The goal of this study was to characterize the impact of pH on the retention of [^18F]DCFPyL on the HLB solvent exchange cartridge. […] The pH of one solution was adjusted to 2 and a second to 4 by adding 1N HCl. A third solution was used without adjusting its native pH of 7.2. Using a BD syringe, 10 mL of each solution was spiked with [^19F]DCFPyL (50 μg) by adding 0.5 mL of a 100 μg/mL stock solution. Each spiked solution was loaded onto a HLB cartridge at a rate of approximately 2 mL/min. […] The eluent from each HLB cartridge was individually collected and identified as the “wash solution.” Each HLB cartridge was then individually eluted with 1 mL of ethanol, the samples collected and are identified as the “product sample.” The load solution and wash solution samples were analyzed using a drug product chemical impurity assay after a 1 to 10 mL dilution with saline, while the ethanolic product samples were analyzed following a 0.5 to 10 dilution with saline.
The goal of this study was to characterize the impact of pH on the retention of ^18F-DCFPyL on the HLB solvent exchange cartridge. […] The pH of one solution was adjusted to 2 and a second to 4 by adding 1N HCl. A third solution was used without adjusting its native pH of 7.2. At this pH the solution will be mainly sodium ascorbate. Using a BD syringe, 10 mL of each solution was spiked with ^19F-DCFPyL (50 μg) by adding 0.5 mL of a 100 μg/mL stock solution. Each spiked solution was loaded onto an HLB cartridge at a rate of approximately 2 mL/min and the solution collected after the HLB column is identified as the load solution. […] Each HLB cartridge was then individually eluted with 1 mL of ethanol, the solution collected after the HLB column is identified as the product sample. The load solution and wash solution samples were analyzed using the drug product chemical impurity assay after a 1 to 10 mL dilution with saline, while the ethanolic product samples were analyzed following a 0.5 to 10 mL dilution with saline.

O=C(O)CC[C@H](NC(=O)N[C@@H](CCCCNC(=O)c1ccc([18F])nc1)C(=O)O)C(=O)O [Lot 18F-DCFPyL, 2-(3-{1-carboxy-5-[(6-[18F]fluoro-pyridine-3-carbonyl)-amino]-pentyl}ureido)-pentanedioic acid]
retention of [18F]-DCFPyL by the HLB cartridge (pH 2): 98% | retention of [18F]-DCFPyL by the HLB cartridge (pH 4): 81%

Reference: patent US20250019350A1, “SYNTHESIS OF THE PROSTATE SPECIFIC MEMBRANE ANTIGEN (PSMA) RADIOLABELED INHIBITOR [18F]DCFPYL” (Progenics Pharmaceuticals, Inc, priority 2023, published 2025)
